The source made the active and inactive calls.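 The calls were made as follows: active = a tumour-causing dose and a tumour site recorded for mice in at least one sex group; inconclusive = only government mouse studies exist and were judged inadequate; inactive = mouse studies exist but none gave tumours.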
Tested on: mouse carcinogenicity bioassay, TD50 from CPDB
Experiment: DSSTox (CPDBAS) Carcinogenic Potency Database Summary Mouse Bioassay Results
Method in brief: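 Chronic long-term mouse cancer bioassays from literature and NCI/NTP, compiled per sex. TD50 is the standardized carcinogenic potency, using the most positive experiment per sex-species; target sites follow author opinion.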

[1] = TD50_Mouse_Note: TD50 is harmonic mean of more than one positive test, TargetSites_Mouse_Female: no positive results
[2] = TD50_Mouse_Note: no positive results, TargetSites_Mouse_Female: no positive results
[3] = TargetSites_Mouse_Female: liver
[4] = TD50_Mouse_Note: TD50 is harmonic mean of more than one positive test, TargetSites_Mouse_Female: liver
[5] = TargetSites_Mouse_Female: no positive results
[6] = TD50_Mouse_Note: TD50 is harmonic mean of more than one positive test, TargetSites_Mouse_Female: vascular system

BrCCBr
Potency (TD50_Mouse_Note: TD50 is harmonic mean of more than one positive test, greater than ten-fold variation among TD50 values for positive res, TargetSites_Mouse_Female: esophagus, lung, mammary gland, nasal cavity, stomach, subcutaneous tissue, vascular system): 0.0397 mmol/kg/day

[CH3][Hg][Cl]
Potency [1]: 0.00578 mmol/kg/day

OCC(CO)N[C@H]1C[C@](O)(CO)[C@@H](O)[C@H](O)[C@H]1O
outcome [2]: inactive; no positive results

NCCCCCCCCCCC(=O)O
outcome [2]: inactive; no positive results

COc1ccc2nc(S(=O)Cc3ncc(C)c(OC)c3C)[nH]c2c1 (stereo not drawn)
outcome [2]: inactive; no positive results

CCCCCCCCCCCCN=C(N)N
outcome [2]: inactive; no positive results

O=[N+]([O-])c1ccccc1
Potency (TD50_Mouse_Note: TD50 is harmonic mean of more than one positive test, TargetSites_Mouse_Female: liver, mammary gland): 2.4 mmol/kg/day

O=[N+]([O-])c1ccc(NCCO)c(OCCO)c1
outcome [2]: inactive; no positive results

C#CC(C)(C)NC(=O)c1cc(Cl)cc(Cl)c1
Potency: 0.547 mmol/kg/day

O1[As]2O[As]3O[As]1O[As](O2)O3
outcome [2]: inactive; no positive results

O=C1c2ccccc2C(=O)N1SC(Cl)(Cl)Cl
Potency (TD50_Mouse_Note: TD50 is harmonic mean of more than one positive test, TargetSites_Mouse_Female: small intestine): 5.23 mmol/kg/day

CCCCCC
Potency [3]: 352 mmol/kg/day

COc1ccc(N)c(C)c1
outcome [2]: inactive; ntp bioassay inadequate

CCN(CC)C(=O)Nc1ccc(OCC(O)CNC(C)(C)C)c(C(C)=O)c1 (stereo not drawn)
outcome [2]: inactive; no positive results

Nc1nc(/C=C/c2ccc([N+](=O)[O-])o2)no1
Potency (TD50_Mouse_Note: TD50 is harmonic mean of more than one positive test, TargetSites_Mouse_Female: hematopoietic system, stomach): 0.504 mmol/kg/day

Cc1ccc(S(=O)(=O)NC(=O)NN2CCCCCC2)cc1
outcome [2]: inactive; no positive results

CC(=O)Nc1ccc(N=Nc2cc(C)ccc2O)cc1
Potency [3]: 3.79 mmol/kg/day

ClC(Cl)Br
Potency [4]: 0.291 mmol/kg/day

Nc1ccccc1C(=O)O
outcome [2]: inactive; no positive results

ClCOCCOCCl
Potency (TD50_Mouse_Note: positive test results only by intraperitoneal or intravenous injection, TargetSites_Mouse_Female: peritoneal cavity): 0.0291 mmol/kg/day

NC(=O)OCC(COC(N)=O)c1ccccc1
Potency [4]: 31.1 mmol/kg/day

CNC(=O)Oc1cccc2ccccc12
outcome [2]: inactive; no positive results

OC[C@@H](O)[C@@H](O)[C@H](O)[C@H](O)CO[C@H]1O[C@H](CO)[C@@H](O)[C@H](O)[C@H]1O
outcome [2]: inactive; no positive results

CN1CCCC1=O
Potency [4]: 20.7 mmol/kg/day

O=CCBr
outcome [2]: inactive; no positive results

C[C@H]([C@H](O)CCC(C)(C)O)[C@H]1CC[C@@]2(O)C3=CC(=O)[C@@H]4C[C@@H](O)[C@@H](O)C[C@]4(C)[C@H]3CC[C@]12C
Potency (TD50_Mouse_Note: TD50 is harmonic mean of more than one positive test, TargetSites_Mouse_Female: mammary gland): 7.7e-05 mmol/kg/day

COP(=O)(OC)OC
Potency (TargetSites_Mouse_Female: uterus): 2.39 mmol/kg/day

Nc1ccc(N=Nc2ccc(-c3ccc(N=Nc4c(S(=O)(=O)O)cc5cc(S(=O)(=O)O)c(N=Nc6ccccc6)c(O)c5c4N)cc3)cc2)c(N)c1
Potency (TargetSites_Mouse_BothSexes: liver, mammary gland): 0.0916 mmol/kg/day

CCOC(=O)[C@H](CCc1ccccc1)N[C@@H](C)C(=O)N1Cc2ccccc2C[C@H]1C(=O)O
outcome [2]: inactive; no positive results

COc1nn(CSP(=S)(OC)OC)c(=O)s1
Potency [5]: 0.02 mmol/kg/day

c1ccc(Nc2ccc3ccccc3c2)cc1
outcome [2]: inactive; no positive results

CCC1(c2ccccc2)C(=O)NC(=O)NC1=O
Potency (TD50_Mouse_Note: TD50 is harmonic mean of more than one positive test, harmonic mean of TD50 includes a value for upper 99% confidence li, TargetSites_Mouse_Female: liver): 0.0317 mmol/kg/day

Cc1cc(C)nc(NS(=O)(=O)c2ccc(N)cc2)n1
Potency (TD50_Mouse_Note: TD50 is harmonic mean of more than one positive test, TargetSites_Mouse_Female: thyroid gland): 5.43 mmol/kg/day

Nc1nc(=S)c2ncn([C@H]3C[C@H](O)[C@@H](CO)O3)c2[nH]1
outcome (TD50_Mouse_Note: only experiment is NCI/NTP bioassay inadequate, TargetSites_Mouse_Female: NTP bioassay inadequate): ntp bioassay inadequate

NNc1ccccc1
Potency [6]: 0.493 mmol/kg/day
outcome [2]: inactive

Cc1cc2ncccc2c2nc(N)n(C)c12
Potency (TD50_Mouse_Note: TD50 is harmonic mean of more than one positive test, TargetSites_Mouse_Female: large intestine, liver, stomach): 0.073 mmol/kg/day

COC(=O)C(c1ccccc1)C1CCCCN1N=O (stereo not drawn)
outcome [2]: inactive; no positive results

Nc1ncc([N+](=O)[O-])s1
outcome [2]: inactive; no positive results

C[C@H]1CCCC(=O)CCC/C=C/c2cc(O)cc(O)c2C(=O)O1
Potency (TD50_Mouse_Note: TD50 is harmonic mean of more than one positive test, TargetSites_Mouse_Female: liver, pituitary gland): 0.123 mmol/kg/day

Cn1c(=O)c2c(ncn2C)n(C)c1=O
outcome [2]: inactive; no positive results

CC(=O)NN
Potency (TD50_Mouse_Note: TD50 is harmonic mean of more than one positive test, TargetSites_Mouse_Female: lung): 0.133 mmol/kg/day

CCCCC(CC)COC(=O)COc1ccc(Cl)cc1Cl (stereo not drawn)
outcome [2]: inactive; no positive results

CN(C)C(=S)S
outcome [2]: inactive; no positive results

CC(Oc1cc(Cl)ccc1Cl)C(=O)O (stereo not drawn)
outcome [2]: inactive; no positive results

NC(N)=S
outcome [2]: inactive

C=O
Potency [5]: 1.46 mmol/kg/day

ClC1=C(Cl)[C@@]2(Cl)[C@@H]3[C@@H](Cl)[C@H](Cl)C[C@@H]3C1(Cl)C2(Cl)Cl
Potency (TD50_Mouse_Note: TD50 is harmonic mean of more than one positive test, greater than ten-fold variation among TD50 values for positive res, TargetSites_Mouse_Female: liver): 0.00334 mmol/kg/day

NNc1nc(-c2ccc(N)cc2)cs1
Potency (TargetSites_Mouse_Female: hematopoietic system): 0.0548 mmol/kg/day

O=C/C=C/c1ccccc1
outcome [2]: inactive; no positive results

CCc1ccc(C(c2ccc(CC)cc2)C(Cl)Cl)cc1
outcome [2]: inactive; no positive results

[N]=O
outcome [2]: inactive

CC(=O)Nc1ccc(C(=O)CCl)cc1
outcome [2]: inactive; no positive results

CN(C)C(=S)[S][Bi]([S]C(=S)N(C)C)[S]C(=S)N(C)C
outcome [2]: inactive; no positive results

CNC(=S)N(C)C
outcome [2]: inactive; no positive results

C/C=N/N(C)C=O
Potency (TD50_Mouse_Note: TD50 is harmonic mean of more than one positive test, TargetSites_Mouse_Female: clitoral gland, lung, stomach): 0.0251 mmol/kg/day

CCc1cc(C(N)=S)ccn1
Potency (TargetSites_Mouse_Female: thyroid gland): 0.417 mmol/kg/day

COS(C)(=O)=O
Potency: 0.289 mmol/kg/day

NNC(N)=S
outcome [2]: inactive; no positive results

CN(N=O)C1=Nc2ccc(Cl)cc2C(c2ccccc2)=[N+]([O-])C1
outcome [2]: inactive; no positive results

C=CCNN
Potency (TD50_Mouse_Note: TD50 is harmonic mean of more than one positive test, TargetSites_Mouse_Female: lung, vascular system): 0.315 mmol/kg/day

Cc1cccc(Nc2cc(Cl)nc(SCC(=O)NCCO)n2)c1C
Potency [3]: 0.122 mmol/kg/day

CCC(Cl)CCC(Cl)C(Cl)CC(Cl)C(Cl)C(Cl)CCl (stereo not drawn)
outcome (TD50_Mouse_Note: TD50 is harmonic mean of more than one positive test, TD50_Mouse_mmol was not calculated for this mixture, but Activiity, TargetSites_Mouse_Female: liver, thyroid gland): active; liver

Nc1ccc(-c2ccc(N)c(O)c2)cc1O
Potency (TD50_Mouse_Note: no positive results are statistically significant): 1.22 mmol/kg/day

CCC(O)OC(O)CC (stereo not drawn)
outcome [2]: inactive; no positive results

O=C(O)c1ccccc1-c1c2cc(I)c(=O)c(I)c-2oc2c(I)c(O)c(I)cc12
outcome [2]: inactive; no positive results

NC(=O)/C(=C\c1ccc([N+](=O)[O-])o1)c1ccco1
Potency (TD50_Mouse_Note: TD50 is harmonic mean of more than one positive test, greater than ten-fold variation among TD50 values for positive res, TargetSites_Mouse_Female: stomach): 0.528 mmol/kg/day

CN(C)CCC(c1ccc(Cl)cc1)c1ccccn1 (stereo not drawn)
outcome [2]: inactive; no positive results

CCOP(=O)(CC1CO1)OCC (stereo not drawn)
outcome [2]: inactive

O=C1c2ccccc2C(=O)c2ccccc21
outcome [2]: inactive; no positive results

C=COC(C)=O
Potency (TargetSites_Mouse_Female: esophagus, oral cavity, stomach, uterus): 45.5 mmol/kg/day

ClC(Cl)=C(Cl)Cl
Potency [4]: 0.953 mmol/kg/day

O=C(O)CCCc1ccc(N(CCCl)CCCl)cc1
Potency (TD50_Mouse_Note: positive test results only by intraperitoneal or intravenous injection, TD50 is harmonic mean of more than one positive, TargetSites_Mouse_Female: lung): 0.000437 mmol/kg/day

Cc1ccccc1OCC(O)CNCCn1cc(C)c(=O)[nH]c1=O (stereo not drawn)
outcome [2]: inactive; no positive results

c1ccc2[nH]c(-c3cscn3)nc2c1
outcome [2]: inactive; no positive results

Clc1ccc(Cl)cc1
Potency [4]: 2.2 mmol/kg/day

Cc1c([N+](=O)[O-])c(C)c([N+](=O)[O-])c(C(C)(C)C)c1[N+](=O)[O-]
Potency [4]: 0.427 mmol/kg/day

[O-][Cl+]O
outcome [2]: inactive; no positive results

C=COC(N)=O
Potency (TD50_Mouse_Note: positive test results only by intraperitoneal or intravenous injection, TD50 is harmonic mean of more than one positive, TargetSites_Mouse_Female: liver, vascular system): 0.00142 mmol/kg/day

Nc1ccccc1
outcome [2]: inactive; no positive results

CCc1nc(N)nc(N)c1-c1ccc(Cl)cc1
outcome [2]: inactive; ntp bioassay inadequate

O=P(O)(O)O
outcome [2]: inactive; no positive results

O=NN1CCN(N=O)CC1
Potency (TD50_Mouse_Note: TD50 is harmonic mean of more than one positive test, TargetSites_Mouse_Female: stomach): 0.025 mmol/kg/day

OC[C@H]1O[C@@H]2O[C@H]3[C@H](O)[C@@H](O)[C@@H](O[C@H]4[C@H](O)[C@@H](O)[C@@H](O[C@H]5[C@H](O)[C@@H](O)[C@@H](O[C@H]6[C@H](O)[C@@H](O)[C@@H](O[C@H]7[C@H](O)[C@@H](O)[C@@H](O[C@H]8[C@H](O)[C@@H](O)[C@@H](O[C@H]1[C@H](O)[C@H]2O)O[C@@H]8CO)O[C@@H]7CO)O[C@@H]6CO)O[C@@H]5CO)O[C@@H]4CO)O[C@@H]3CO
outcome [2]: inactive; no positive results

O=[As]O
outcome (TD50_Mouse_Note: no positive results, TargetSites_Mouse_BothSexes: no positive results): inactive

Brc1cc(Br)c(-c2cc(Br)c(Br)cc2Br)cc1Br
Potency [4]: 0.000529 mmol/kg/day

O=CCCl
Potency [5]: 0.46 mmol/kg/day

ClCCOCCCl
Potency [1]: 0.0818 mmol/kg/day

c1ccc2cc(Nc3ccc(Nc4ccc5ccccc5c4)cc3)ccc2c1
outcome [2]: inactive; no positive results

OC(O)C(Cl)(Cl)Cl
Potency [1]: 0.604 mmol/kg/day

O=NN1CCCCCC1
Potency (TD50_Mouse_Note: TD50 is harmonic mean of more than one positive test, TargetSites_Mouse_Female: esophagus, liver, lung, nasal cavity, oral cavity, stomach): 0.00412 mmol/kg/day

O=c1ccc2ccccc2o1
Potency (TD50_Mouse_Note: TD50 is harmonic mean of more than one positive test, TargetSites_Mouse_Female: liver, lung): 0.705 mmol/kg/day

COc1cc2c(c3oc4cccc(O)c4c(=O)c13)C1C=COC1O2 (stereo not drawn)
Potency [6]: 0.0028 mmol/kg/day

— PubChem BioAssay AID1199 (EPA DSSTox, 2008)
